# Source: US20230102192A1, “THERAPIES FOR THE TREATMENT OF DISEASES AND DISORDERS ASSOCIATED WITH ABNORMAL EXPRESSION OF A NEURAL-ASSOCIATED GENE” (The Regents of the University of California, priority 2020, published 2023)
# Tests used:
# [1] = test system: MECP2-KO neurons; test: Calcium imaging of neurons; type: cell-based, human; conditions: vs untreated KO
# Procedure: (§1) Pharmacologic treatment. One-month old cortical organoids were treated for 1 mo with either Nefiracetam (10 μM) or PHA 543613 (10 μM) during media changes.
# Calcium imaging. Calcium imaging was performed as described in Chailangkarn et al. Briefly, PSC-derived neuronal networks were lentivirally transduced with a Syn::RFP reporter construct. Cultures were washed with Krebs HEPES buffer and incubated with Fluo-4AM (Molecular Probes/Invitrogen, Carlsbad, Calif., USA). A Hamamatsu ORCA-ER digital camera (Hamamatsu Photonics, Japan) with 488 nm filter on an Olympus IX81 inverted fluorescence confocal microscope (Olympus Optical, Tokyo, Japan) acquired 5000 frames at 28 Hz in a 256×256 pixel region (100× magnification). Images were acquired with MetaMorph7.7 (MDS Analytical Technologies, Sunnyvale, Calif., USA) and analyzed with ImageJ and Matlab7.2 (Mathworks, Natick, Mass., USA). Syn::RFP+ neurons were selected following tetrodotoxin blockade of calcium transients. A 95th-percentile threshold of amplitude for calcium spikes was set for event detection; signal amplitude is presented as fluorescence change (ΔF/F) following background subtraction.
# [2] = test system: MECP2-KO neurons; test: Co-localized pre/postsynaptic puncta quantification in neurons; type: cell-based, human; conditions: one-month old MECP2-KO neurons treated two weeks
# Procedure: as §1
# Synaptic puncta quantification. Co-localized pre and postsynaptic puncta (Vglut and Homer1 immunostained) along MAP2-positive processes were quantified. Primary antibodies (see above) incubated 2 h, secondary antibodies incubated 1 h, and coverslips were mounted. Slides were analyzed under fluorescence microscopy.
# Pharmacologic screening identifies two compounds that specifically reverse MECP2-KO phenotypes. 14 commercially available pharmacologic compounds with mechanisms of action that counteract the synapse and neurotransmitter pathologies were selected and which are identified in FIG. 5B. […] MECP2-KO and control neurons were treated with each of the 14 compounds and employed a tiered series of assays to identify those that could selectively rescue MECP2-KO pathology without affecting controls. […] The capacity of these compounds to increase pre and post co-localized synaptic puncta in MECP2-KO neurons were evaluated, again eliminating the drugs that affected control neurons (see FIG. 5F-G, and FIG. 6C-D).
# [3] = large Carbamoylcholine metabolite; cited from earlier work
Compound,frequency of calcium oscillations [1],percentage of active neurons [1],synaptogenesis / co-localized synaptic puncta [2],gastrointestinal absorption [3],traversal of the blood-brain barrier [3]
CC(=O)NCCCS(=O)(=O)O [Acamprosate],increases,increases,specifically increased synaptogenesis,–,–
C[N+](C)(C)CCOC(N)=O [Carbamoylcholine],–,–,–,limited gastrointestinal absorption,cannot traverse the blood-brain barrier
